Legend:
HCT116 cancer cells = system: HCT116 cancer cells; design: method as in PMID 30981113; details: HCT116 cancer cells ref 11; read-out: IC50 anti-proliferative activity HCT116; cited from earlier work
BEL-7402 cells [1] = experiment: MTT antiproliferative assay, BEL-7402; format: cell-based, human; details: for inhibition at 100 µM / IC50: Homo sapiens, Bel-7402, 48 h; for inhibition at 100 µM: read-out: Growth Inhibition at 100 μM (%) BEL-7402; for IC50: read-out: IC50 BEL-7402; for Selectivity index BEL-7402: IC50 on normal cells (L02)/IC50 on tumor cells (BEL-7402)
Procedure: (§1) The antiproliferative activity of the target compounds against the panel of three different human cancer cell lines, liver (BEL-7402), colorectal (HCT-116), and breast (MCF-7) cell lines was evaluated using a standard MTT-based colorimetric assay. All cell lines were obtained from the Key Laboratory of Natural Resources and Functional Molecules of the Changbai Mountain (Yanbian University) and maintained in Dulbecco’s modified Eagle’s medium (DMEM) and RPMI Media 1640 (RPMI1640), supplemented with 10% foetal bovine serum (FBS) at 37 °C in a humidified atmosphere containing 5% CO2.
(§2) The cells were plated in 96-well plates at appropriate densities to ensure exponential growth throughout the experimental period (9 × 10^3 cells per well) and then allowed to adhere for 24 h. the cells were then treated for 48 h with each compound. After 48 h of incubation, 10 μL of MTT solution was added to each well to a final concentration of 2 mg/mL. the plates were then incubated for a further 4 h. After incubation, the MTT solution was removed and 150 μL of DMSO was added to each well for coloration. The plates were shaken vigorously for 10 min at room temperature to ensure complete solubilisation. The optometric density (OD) was read on a microplate reader (EL × 800, BioTek, Highland Park, Winooski, VT, USA) at 492 nm, and the data were subsequently analysed. The percentage of cell growth inhibition was calculated from the following Equation:
(§3) Inhibitory rate (%) = [1 − (ODtreated − ODblank)/(ODcontrol − ODblank)] × 100%
(§4) To obtain the antiproliferative activity of compounds 3a-3s and 4a-4d, the compounds were selected in the same way with four serial concentrations (1, 10, 50 and 100 μM) of those compounds. The optometric density (OD) reading was then used to calculate the IC50.

HCT-116 cells = experiment: MTT antiproliferative assay, HCT-116; format: cell-based, human; details: for inhibition at 100 µM / IC50: Homo sapiens, HCT-116, 48 h; for inhibition at 100 µM: read-out: Growth Inhibition at 100 μM (%) HCT-116; for IC50: read-out: IC50 HCT-116; for Selectivity index HCT-116: IC50 on normal cells (L02)/IC50 on tumor cells (HCT-116)
Procedure: as §1, §2, §3, §4

MCF-7 cells = experiment: MTT antiproliferative assay, MCF-7; format: cell-based, human; details: for inhibition at 100 µM / IC50: Homo sapiens, MCF7, 48 h; for inhibition at 100 µM: read-out: Growth Inhibition at 100 μM (%) MCF-7; for IC50: read-out: IC50 MCF-7; for Selectivity index MCF-7: IC50 on normal cells (L02)/IC50 on tumor cells (MCF-7)
Procedure: as §1, §2, §3, §4

L02 cells = experiment: Antiproliferative activity against normal cell line L02; format: cell-based; details: Homo sapiens, L02, read-out: L02 IC50
Procedure: The lack of selective cytotoxicity is the main factor that restricts the dose of most conventional chemotherapeutic agents ([21]). […] Selectivity indexes between cancer cells and L02 cells were calculated.

BEL-7402 cells [2] = experiment: Apoptosis by flow cytometry (annexin V-FITC/PI); format: cell-based, human; details: 24 h
Procedure: Apoptosis was detected using an Apoptosis Detection Kit (Invitrogen, Eugene, OR, USA). Briefly, BEL-7402 cells were cultured in 6-well plates (1.0 × 10^6 cells per well) and incubated at 37 °C for 12 h. Cells with exponential growth were then incubated with compound 3s at different concentrations (5 μM and 20 μM). Following 24 h of incubation, the cells were collected, washed twice with PBS and once with 1 × binding buffer, and then stained with 5 […] and […] (5 mg/mL) in 1 × binding buffer for 30 min at 20 °C in the dark. Apoptotic cells were enumerated using a FACSCalibur flow cytometer with Cell Quest software (Becton–Dickinso, Franklin Lakes, NJ, USA).

HCT116 cell line = system: HCT116 cell line; design: method as in earlier work; details: cited from earlier work
MCF-7 cell line = system: MCF-7 cell line; design: method as in earlier work; details: cited from earlier work

Structure (SMILES) | IC50 (HCT116 cancer cells) | inhibition at 100 µM (BEL-7402 cells [1]) | IC50 (BEL-7402 cells [1]) | Selectivity index BEL-7402 (BEL-7402 cells [1]) | inhibition at 100 µM (HCT-116 cells) | IC50 (HCT-116 cells) | Selectivity index HCT-116 (HCT-116 cells) | inhibition at 100 µM (MCF-7 cells) | IC50 (MCF-7 cells) | Selectivity index MCF-7 (MCF-7 cells) | IC50 (L02 cells) | melting point | early-stage apoptosis rate (LR) (BEL-7402 cells [2]; 5 μM) | late-stage apoptosis rate (UR) (BEL-7402 cells [2]; 5 μM) | dead cells (UL) (BEL-7402 cells [2]; 20 μM) | early-stage apoptosis rate (LR) (BEL-7402 cells [2]; 20 μM) | late-stage apoptosis rate (UR) (BEL-7402 cells [2]; 20 μM) | IC50 (HCT116 cell line) | IC50 (MCF-7 cell line)
C=C1C(=O)[C@]23[C@H](OC(=O)c4cn(-c5ccc(OC)cc5)nn4)[C@H]1CC[C@H]2[C@@]12CO[C@]3(O)[C@@H](O)[C@@H]1C(C)(C)CC[C@@H]2O [Compound C] | 1.94 µM | – | – | – | – | – | – | – | – | – | – | – | – | – | – | – | – | – | –
O=C1NC(=O)C(=Cc2cn(-c3cccc(Cl)c3)nn2)C(=O)N1 [Compound 3f, 5-((1-(3-chlorophenyl)-1H-1,2,3-triazol-4-yl)methylene)pyrimidine-2,4,6(1H,3H,5H)-trione] | – | 75.2 ± 3% | 15.9 ± 1.32 µM | 5.89 | 79.3 ± 5.6% | 14.9 ± 0.55 µM | 6.28 | 58 ± 3.2% | 29.1 ± 0.34 µM | 3.22 | 93.9 ± 5.9 µM | 250 °C | – | – | – | – | – | – | –
O=C1NC(=O)C(=Cc2cn(-c3cccc(F)c3)nn2)C(=O)N1 [Compound 3c, 5-((1-(3-fluorophenyl)-1H-1,2,3-triazol-4-yl)methylene)pyrimidine-2,4,6(1H,3H,5H)-trione] | – | 79 ± 3.9% | 12.2 ± 0.91 µM | 6.74 | 48.4 ± 2.3% | > 100 µM | – | 34.6 ± 1.8% | > 100 µM | – | 82.3 ± 4 µM | 250 °C | – | – | – | – | – | – | –
O=C1NC(=O)C(=Cc2cn(-c3ccc(C(F)(F)F)cc3)nn2)C(=O)N1 [Compound 3s, 5-((1-(4-(trifluoromethyl)phenyl)-1H-1,2,3-triazol-4-yl)methylene)pyrimidine-2,4,6(1H,3H,5H)-trione] | – | 95.3 ± 4.9% | 4.02 ± 0.5 µM | 20.45 | 62.9 ± 1.9% | 21.5 ± 1.19 µM | 3.82 | 90.4 ± 5.3% | 8.98 ± 0.99 µM | 9.15 | 82.2 ± 4.8 µM | – | 1.33% | 4.94% | 27.40% | 3.37% | 35.78% | – | –
O=C1NC(=O)C(=Cc2cn(-c3ccc(Cl)cc3)nn2)C(=O)N1 [Compound 3g, 5-((1-(4-chlorophenyl)-1H-1,2,3-triazol-4-yl)methylene)pyrimidine-2,4,6(1H,3H,5H)-trione] | – | 46.6 ± 4.6% | > 100 µM | – | 68.5 ± 4.6% | 9.59 ± 1.01 µM | 8.36 | 23.9 ± 2.9% | > 100 µM | – | 80.2 ± 6 µM | 250 °C | – | – | – | – | – | – | –
CC1=NN=C(C)C1=NNc1sc2c(c1C(N)=O)CCCCC2 [D] | – | – | – | – | – | – | – | – | – | – | – | – | – | – | – | – | – | 31.1 µM | 22.7 µM
C=C1C(=O)[C@]23[C@H](O)[C@H]1CC[C@H]2[C@@]12CO[C@]3(O)[C@@H](O)[C@@H]1C(C)(C)CC[C@@H]2O [oridonin] | 6.84 µM | – | – | – | – | – | – | – | – | – | – | – | – | – | – | – | – | – | –
O=C1NC(=O)C(=Cc2cn(-c3cc(Cl)ccc3Cl)nn2)C(=O)N1 [Compound 3h, 5-((1-(2,5-dichlorophenyl)-1H-1,2,3-triazol-4-yl)methylene)pyrimidine-2,4,6(1H,3H,5H)-trione] | – | 82.1 ± 3.2% | 9.49 ± 1.78 µM | 8.30 | 81.2 ± 4.2% | 18.9 ± 1.97 µM | 4.17 | 92.2 ± 8.5% | 75.9 ± 1.98 µM | 1.04 | 78.8 ± 3.9 µM | 250 °C | – | – | – | – | – | – | –
O=C1NC(=O)C(=Cc2cn(-c3cccc(Br)c3)nn2)C(=O)N1 [Compound 3k, 5-((1-(3-bromophenyl)-1H-1,2,3-triazol-4-yl)methylene)pyrimidine-2,4,6(1H,3H,5H)-trione] | – | 81.6 ± 3.6% | 19.2 ± 1.8 µM | 3.46 | 88.9 ± 3.1% | 19.4 ± 1.67 µM | 3.42 | 31.7 ± 2.8% | > 100 µM | – | 66.4 ± 5.1 µM | 250 °C | – | – | – | – | – | – | –

Reference: article PMC8457749, “Design, Synthesis, and Anticancer Activity Evaluation of Hybrids of Azoles and Barbituric Acids” (Iranian Journal of Pharmaceutical Research : IJPR, 2021)
